Reference: ChEMBL document CHEMBL3832761, “MMV Pathogen Box Bioactivity Data” (2017)
Values after ≈ are worked out from the molar mass of the structure shown.

How the values were obtained:
Format in all cases: functional
[1] = system: Mycobacterium tuberculosis; experiment: AntiMycobacterium tuberculosis activity 2-week 7H9/glucose/BSA/Tx MIC (uM); details: 336 h
[2] = system: Mycobacterium tuberculosis; experiment: AntiMycobacterium tuberculosis activity 1-week 7H9/DPPC/cholesterol/BSA/Tx MIC (uM); details: 168 h
[3] = system: Mycobacterium tuberculosis; experiment: (§1) AntiMycobacterium tuberculosis activity day 10 in 7H9/2.5mM butyrate/pH6/0.1mM nitrite MIC90 (uM); details: 240 h
[4] = system: Mycobacterium tuberculosis; experiment: AntiMycobacterium tuberculosis activity 1-week GAST/Fe MIC (uM); details: 168 h
[5] = system: Mycobacterium tuberculosis; experiment: as §1; details: 240 h; remark: listed apart in the source
[6] = system: Mycobacterium tuberculosis; experiment: AntiMycobacterium tuberculosis activity 2-week 7H9/ADC/Tw MIC (uM); details: 336 h
[7] = system: Mycobacterium tuberculosis; experiment: AntiMycobacterium tuberculosis activity Non-Replicating form: Average MIC90 (uM)
[8] = system: Mycobacterium tuberculosis; experiment: AntiMycobacterium tuberculosis activity 2-week Alamar Blue 7H9/ADC/Tw MIC (uM); details: 336 h
[9] = system: Mycobacterium tuberculosis; experiment: AntiMycobacterium tuberculosis activity 2-week Alamar Blue 7H9/cholesterol/BSA/Tx MIC (uM); details: 336 h
[10] = system: Mycobacterium tuberculosis; experiment: AntiMycobacterium tuberculosis activity day 21 in 7H9/2.5mM butyrate/pH6/0.1mM nitrite MIC90 (uM); details: 504 h
[11] = system: HepG2; experiment: HepG2 CC50 (uM) Cytotoxicity; details: Homo sapiens
[12] = system: Mycobacterium tuberculosis; experiment: AntiMycobacterium tuberculosis activity 1-week 7H9/cholesterol/BSA/Tx MIC (uM); details: 168 h
[13] = system: Mycobacterium tuberculosis; experiment: AntiMycobacterium tuberculosis activity 1-week 7H9/ADC/Tw MIC (uM); details: 168 h
[14] = system: Mycobacterium tuberculosis; experiment: AntiMycobacterium tuberculosis activity 1-week 7H9/glucose/BSA/Tx MIC (uM); details: 168 h
[15] = system: Mycobacterium tuberculosis; experiment: AntiMycobacterium tuberculosis activity Replicating form: Average MIC90 (uM)
[16] = system: Mycobacterium tuberculosis; experiment: AntiMycobacterium tuberculosis activity 2-week GAST/Fe MIC (uM); details: 336 h
[17] = system: Mycobacterium tuberculosis; experiment: AntiMycobacterium tuberculosis activity day 21 MIC99 in 7H9/2.5mM butyrate/pH6/0.1mM nitrite MIC99 (uM); details: 504 h
[18] = system: Mycobacterium tuberculosis; experiment: AntiMycobacterium tuberculosis activity 2-week 7H9/DPPC/cholesterol/BSA/Tx MIC (uM); details: 336 h

Compound | MIC [1] | MIC [2] | MIC90 [3] | MIC [4] | MIC90 [5] | MIC [6] | MIC90 [7] | MIC [8] | MIC [9] | MIC90 [10] | CC50 [11] | MIC [12] | MIC [13] | MIC [14] | MIC90 [15] | MIC [16] | MIC [17] | MIC [18]
c1cncc(NCc2ccc(-c3cc4ccncc4cc3OC3CCNCC3)s2)c1 | ≥ 50 µM | 50 µM (≈ 20.8 µg/mL) | > 50 µM | 3.13 µM (≈ 1.3 µg/mL) | > 50 µM | 37 µM (≈ 15.4 µg/mL) | 58.7 µM (≈ 24.5 µg/mL) | 12.5 µM (≈ 5.21 µg/mL) | 37 µM (≈ 15.4 µg/mL) | > 50 µM | 8 µM | 50 µM (≈ 20.8 µg/mL) | 50 µM (≈ 20.8 µg/mL) | ≥ 50 µM | 11.8 µM (≈ 4.92 µg/mL) | 4.7 µM (≈ 1.96 µg/mL) | > 50 µM | 50 µM (≈ 20.8 µg/mL)
Cn1c(=O)c2c(S(C)(=O)=O)snc2n(C)c1=O | 19 µM (≈ 5.23 µg/mL) | 19 µM (≈ 5.23 µg/mL) | 6.25 µM (≈ 1.72 µg/mL) | 4.7 µM (≈ 1.29 µg/mL) | 12.5 µM (≈ 3.44 µg/mL) | 25 µM (≈ 6.88 µg/mL) | < 0.23 µM | 25 µM (≈ 6.88 µg/mL) | 25 µM (≈ 6.88 µg/mL) | 12.5 µM (≈ 3.44 µg/mL) | 1.1 µM | 25 µM (≈ 6.88 µg/mL) | 19 µM (≈ 5.23 µg/mL) | 12.5 µM (≈ 3.44 µg/mL) | 15.4 µM (≈ 4.24 µg/mL) | 6.25 µM (≈ 1.72 µg/mL) | 12.5 µM (≈ 3.44 µg/mL) | 37 µM (≈ 10.2 µg/mL)
O=C(Nc1ccc(C(F)(F)F)c(C(F)(F)F)c1)c1cc(Cl)ccc1O | 3.13 µM (≈ 1.2 µg/mL) | 2.3 µM (≈ 0.882 µg/mL) | 1.5 µM (≈ 0.576 µg/mL) | 1.56 µM (≈ 0.599 µg/mL) | 1.5 µM (≈ 0.576 µg/mL) | 4.7 µM (≈ 1.8 µg/mL) | 0.1 µM (≈ 0.0384 µg/mL) | 4.7 µM (≈ 1.8 µg/mL) | 1.56 µM (≈ 0.599 µg/mL) | 1.5 µM (≈ 0.576 µg/mL) | 0.7 µM | 1.56 µM (≈ 0.599 µg/mL) | 3.13 µM (≈ 1.2 µg/mL) | 1.56 µM (≈ 0.599 µg/mL) | 2.33 µM (≈ 0.894 µg/mL) | 2.3 µM (≈ 0.882 µg/mL) | 1.5 µM (≈ 0.576 µg/mL) | 3.13 µM (≈ 1.2 µg/mL)
NCC(c1cccs1)S(=O)(=O)c1ccccc1 (configuration not stated) | 25 µM (≈ 6.68 µg/mL) | 50 µM (≈ 13.4 µg/mL) | 25 µM (≈ 6.68 µg/mL) | 1.56 µM (≈ 0.417 µg/mL) | > 50 µM | 25 µM (≈ 6.68 µg/mL) | 19.6 µM (≈ 5.24 µg/mL) | 25 µM (≈ 6.68 µg/mL) | 50 µM (≈ 13.4 µg/mL) | 25 µM (≈ 6.68 µg/mL) | 35.4 µM | 50 µM (≈ 13.4 µg/mL) | 19 µM (≈ 5.08 µg/mL) | 25 µM (≈ 6.68 µg/mL) | 20.7 µM (≈ 5.52 µg/mL) | 2.3 µM (≈ 0.615 µg/mL) | > 50 µM | 50 µM (≈ 13.4 µg/mL)
O=C(c1cc2ccccc2o1)N1CCN(Cc2ccc3c(c2)OCO3)CC1 | > 50 µM | 19 µM (≈ 6.92 µg/mL) | 50 µM (≈ 18.2 µg/mL) | 0.1 µM (≈ 0.0364 µg/mL) | > 50 µM | > 50 µM | 16.6 µM (≈ 6.07 µg/mL) | 12.5 µM (≈ 4.56 µg/mL) | 6.25 µM (≈ 2.28 µg/mL) | > 50 µM | > 100 µM | 37 µM (≈ 13.5 µg/mL) | > 50 µM | > 50 µM | > 100 µM | 0.2 µM (≈ 0.0729 µg/mL) | > 50 µM | 50 µM (≈ 18.2 µg/mL)
COc1cc(C(F)(F)F)nc2ccc(C)c(N)c12 | > 50 µM | 4.7 µM (≈ 1.2 µg/mL) | 3.12 µM (≈ 0.799 µg/mL) | 0.2 µM (≈ 0.0512 µg/mL) | > 50 µM | > 50 µM | 16.1 µM (≈ 4.12 µg/mL) | 12.5 µM (≈ 3.2 µg/mL) | 3.13 µM (≈ 0.802 µg/mL) | 6.25 µM (≈ 1.6 µg/mL) | > 100 µM | 2.3 µM (≈ 0.589 µg/mL) | > 50 µM | 25 µM (≈ 6.41 µg/mL) | > 100 µM | 0.6 µM (≈ 0.154 µg/mL) | > 50 µM | 50 µM (≈ 12.8 µg/mL)
CC(C)(C)c1cnc(NC(=O)c2ccccc2O)s1 | > 50 µM | > 50 µM | 50 µM (≈ 13.8 µg/mL) | 19 µM (≈ 5.25 µg/mL) | > 50 µM | > 50 µM | 21 µM (≈ 5.81 µg/mL) | > 50 µM | > 50 µM | 50 µM (≈ 13.8 µg/mL) | 47.6 µM | > 50 µM | > 50 µM | > 50 µM | 81.9 µM (≈ 22.6 µg/mL) | 25 µM (≈ 6.91 µg/mL) | > 50 µM | > 50 µM
COc1ccccc1OCCCCn1c(C2CC2)nc2ccccc21 | > 50 µM | 9.4 µM (≈ 3.16 µg/mL) | 6.25 µM (≈ 2.1 µg/mL) | 0.2 µM (≈ 0.0673 µg/mL) | 50 µM (≈ 16.8 µg/mL) | > 50 µM | 16.4 µM (≈ 5.52 µg/mL) | 19 µM (≈ 6.39 µg/mL) | 4.7 µM (≈ 1.58 µg/mL) | 25 µM (≈ 8.41 µg/mL) | 100 µM | 3.13 µM (≈ 1.05 µg/mL) | > 50 µM | 37 µM (≈ 12.4 µg/mL) | > 100 µM | 0.6 µM (≈ 0.202 µg/mL) | > 50 µM | 37 µM (≈ 12.4 µg/mL)
O=C(NCCc1c[nH]c2ccccc12)c1cc2ccccc2oc1=O | 1.56 µM (≈ 0.518 µg/mL) | 1.56 µM (≈ 0.518 µg/mL) | 12.5 µM (≈ 4.15 µg/mL) | 0.3 µM (≈ 0.0997 µg/mL) | > 50 µM | 0.78 µM (≈ 0.259 µg/mL) | 4.78 µM (≈ 1.59 µg/mL) | 0.78 µM (≈ 0.259 µg/mL) | 4.7 µM (≈ 1.56 µg/mL) | 50 µM (≈ 16.6 µg/mL) | > 100 µM | 1.2 µM (≈ 0.399 µg/mL) | 0.78 µM (≈ 0.259 µg/mL) | 0.78 µM (≈ 0.259 µg/mL) | 7.71 µM (≈ 2.56 µg/mL) | 0.6 µM (≈ 0.199 µg/mL) | > 50 µM | 3.13 µM (≈ 1.04 µg/mL)
